The results in this text go back to US20240059703A1 (AMGEN INC., priority 2021, published 2024).

pIC50: −log10 of the molar value.

In assay [1] the test system is MIA PaCa-2 (human pancreatic carcinoma) cells. Briefly: Cell Viability Assay (CellTiter-Glo), MIA PaCa-2. The assay is classed as cell-based. As to the method:
Serially-diluted compound or DMSO was added to the cells, and plates were incubated at 37° C., 5% CO2 for 72 h. Cell viability was measured using a CellTiter-Glo® Luminescent Cell Viability Assay kit (Promega) according to the manufacturer's protocol. The luminescence signal of treated samples was normalized to DMSO control, and data were analyzed using a 4-parameter logistic model to calculate IC50 values.
Background: ATP-based viability assays read luminescence as a measure of living cells.

The test system of assay [2] is A549 (human lung carcinoma) cells. Briefly: Cell Viability Assay (CellTiter-Glo), A549. The assay is classed as cell-based. An outline of the steps: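 Luminescent ATP read-out (CellTiter-Glo) after 72 h compound treatment of cells seeded overnight at 1.67E+04 cells/mL in RPMI 1640, 10% FBS; signal relative to DMSO, IC50 by 4-parameter logistic model.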
The target of a further assay is KRAS G12C (Homo sapiens (Human), UniProt P01116, C118A/G12C). Briefly: 2 h coupled exchange assay. Format: biochemical. The note with it: Avg 2 h Coupled exchange IC50, 2 h compound pre-incubation. The method, then: The term “2 h coupled exchange assay” or “20 h coupled exchange assay” as used herein refers to the assay described in the Section entitled “BIOLOGICAL EVALUATION.”
Sequence of KRAS G12C (P01116 other isoform, or with tags, fused parts or gaps G12C/C118A): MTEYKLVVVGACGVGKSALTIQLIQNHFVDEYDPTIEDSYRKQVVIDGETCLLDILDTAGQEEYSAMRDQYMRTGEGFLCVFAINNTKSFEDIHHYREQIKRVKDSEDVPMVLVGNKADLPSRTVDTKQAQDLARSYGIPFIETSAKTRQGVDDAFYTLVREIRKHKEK

Setting [3] is: SOS-mediated nucleotide exchange.

Turning to `C=CC(=O)N1CC2(CCN(c3nc4c(c(-c5c(C)ccc6[nH]ncc56)c3C#N)CCC4(C)C)C2)C1` [Example 13-97, 2-(2-acryloyl-2,6-diazaspiro[3.4]octan-6-yl)-7,7-dimethyl-4-(5-methyl-1H-indazol-4-yl)-6,7-dihydro-5H-cyclopenta[b]pyridine-3-carbonitrile], the pIC50 is 6.37 in assay [1] (Homo sapiens, MIA PaCa-2, 72 h); below 5.30 in assay [2] (Homo sapiens, A549, 72 h); 7.34 on KRAS G12C (setting [3]).

Turning to `Cc1ccc2[nH]ncc2c1-c1c(C#N)c(N2CCC3(CN(C(=O)/C=C/CN(C)C)C3)C2)nc2c(F)cccc12` [Example 1-46, 2-(2-((2E)-4-(dimethylamino)-2-butenoyl)-2,6-diazaspiro[3.4]octan-6-yl)-8-fluoro-4-(5-methyl-1H-indazol-4-yl)-3-quinolinecarbonitrile], the pIC50 in assay [1] (Homo sapiens, MIA PaCa-2, 72 h) is 5.69; in assay [2] (Homo sapiens, A549, 72 h) it was 5.20; at KRAS G12C (setting [3]) it was 5.82.

Turning to `C=CC(=O)N1CC2(CCN(c3nc(-c4ccccc4F)c4c(n3)N([C@H](CC(=O)NC)CC(C)C)CC4)C2)C1` (single isomer, unassigned) [Example 9], the negative-log IC50 (pIC50) is 5.77 in assay [1] (Homo sapiens, MIA PaCa-2, 72 h); below 5.30 in assay [2] (Homo sapiens, A549, 72 h); 6.16 on KRAS G12C (setting [3]).

In the case of `C=CC(=O)N1CC2(CCN(c3nc4c(c(-c5ccccc5F)c3C#N)CCC(c3ccnn3C)C4)C2)C1` [Example 13-26, (7R)-4-(2-fluorophenyl)-7-(1-methyl-1H-pyrazol-5-yl)-2-(2-(2-propenoyl)-2,6-diazaspiro[3.4]octan-6-yl)-5,6,7,8-tetrahydro-3-quinolinecarbonitrile|(7S)-4-(2-fluorophenyl)-7-(1-methyl-1H-pyrazol-5-yl)-2-(2-(2-propenoyl)-2,6-diazaspiro[3.4]octan-6-yl)-5,6,7,8-tetrahydro-3-quinolinecarbonitrile], the pIC50 in assay [1] (Homo sapiens, MIA PaCa-2, 72 h) is 6.55; in assay [2] (Homo sapiens, A549, 72 h), below 5.30; against KRAS G12C (setting [3]), 7.46.

Regarding `C=CC(=O)N1CC2(CCN(c3nc4c(c(-c5c(C)ccc6[nH]ncc56)c3C#N)COC(C(F)(F)F)C4)C2)C1` (stereo not drawn) [Example 13-99], the pIC50 in assay [1] (Homo sapiens, MIA PaCa-2, 72 h) is 5.84; in assay [2] (Homo sapiens, A549, 72 h) it was below 5.30; against KRAS G12C (setting [3]), 6.74.

As for `C=CC(=O)N1CC2(CCN(c3nc4c(c(-c5c(C)ccc6[nH]ncc56)c3C#N)C[C@H]3C[C@@H]4C3(C)C)C2C)C1` (stereo partly drawn) [Example 13-94, (1R,9R)-10,10-dimethyl-6-(5-methyl-1H-indazol-4-yl)-4-((5R)-5-methyl-2-(2-propenoyl)-2,6-diazaspior[3.4]octan-6-yl)-3-azatricyclo[7.1.1.0^2,7]undeca-2,4,6-triene-5-carbonitrile|(1R,9R)-10,10-dimethyl-6-(5-methyl-1H-indazol-4-yl)-4-((5S)-5-methyl-2-(2-propenoyl)-2,6-diazaspiro[3.4]octan-6-yl)-3-azatricyclo[7.1.1.0^2,7]undeca-2,4,6-triene-5-carbonitrile], the pIC50 in assay [1] (Homo sapiens, MIA PaCa-2, 72 h) was 7.38; in assay [2] (Homo sapiens, A549, 72 h) it was below 5.30; against KRAS G12C (setting [3]), 7.29.

Take `C=CC(=O)N1CC2(CCN(c3nc4cc(-c5scnc5C)cnc4c(-c4cccc(C)c4C)c3C#N)C2)C1` (single isomer, unassigned) [Example 19-13, (M)-4-(2,3-dimethylphenyl)-7-(4-methyl-1,3-thiazol-5-yl)-2-(2-(2-propenoyl)-2,6-diazaspiro[3.4]octan-6-yl)-1,5-naphthyridine-3-carbonitrile]: the pIC50 is 6.17 in assay [1] (Homo sapiens, MIA PaCa-2, 72 h); below 5.30 in assay [2] (Homo sapiens, A549, 72 h); 7.17 on KRAS G12C.

With `C=CC(=O)N1CC2(C1)CN(c1nc3cc(-c4ccnn4C)ccc3c(-c3ccccc3Cl)c1C#N)CC2(F)F` [Example 17-2, 4-(2-chlorophenyl)-2-(8,8-difluoro-2-(2-propenoyl)-2,6-diazaspiro[3.4]octan-6-yl)-7-(1-methyl-1H-pyrazol-5-yl)-3-quinolinecarbonitrile], the pIC50 in assay [1] (Homo sapiens, MIA PaCa-2, 72 h) is 5.73; in assay [2] (Homo sapiens, A549, 72 h), 5.52; against KRAS G12C, 7.01.

`C=CC(=O)N1CC2(CCN(c3nc(-c4ccccc4F)c4c(n3)N([C@H](CC(=O)NC)CC(C)C)CCC4)C2)C1` (single isomer, unassigned) [Example 10]: the pIC50 is 5.49 in assay [1] (Homo sapiens, MIA PaCa-2, 72 h); below 5.30 in assay [2] (Homo sapiens, A549, 72 h); 5.77 at KRAS G12C (setting [3]).

As for `C=CC(=O)N1CC2(CCN(c3nc4c(c(-c5ccccc5Cl)c3C)CCC(c3c(C)cnn3C)C4)C2)C1` [Example 14-96, 1-(6-((7R)-4-(2-chlorophenyl)-7-(1,4-dimethyl-1H-pyrazol-5-yl)-3-methyl-5,6,7,8-tetrahydro-2-quinolinyl)-2,6-diazaspiro[3.4]octan-2-yl)-2-propen-1-one|1-(6-((7S)-4-(2-chlorophenyl)-7-(1,4-dimethyl-1H-pyrazol-5-yl)-3-methyl-5,6,7,8-tetrahydro-2-quinolinyl)-2,6-diazaspiro[3.4]octan-2-yl)-2-propen-1-one], the pIC50 in assay [1] (Homo sapiens, MIA PaCa-2, 72 h) is 6.07; in assay [2] (Homo sapiens, A549, 72 h), 4.87; against KRAS G12C, 6.26.

With `C=CC(=O)N1CC2(CCN(c3nc4c(c(-c5c(C)ccc6[nH]ncc56)c3C#N)COCCC4(F)F)C2)C1` [Example 13-15, 9,9-difluoro-4-(5-methyl-1H-indazol-4-yl)-2-(2-(2-propenoyl)-2,6-diazaspiro[3.4]octan-6-yl)-5,7,8,9-tetrahydrooxepino[4,3-b]pyridine-3-carbonitrile], the negative logarithm of the IC50 (pIC50) in assay [1] (Homo sapiens, MIA PaCa-2, 72 h) was 5.93; in assay [2] (Homo sapiens, A549, 72 h), below 5.30; at KRAS G12C (setting [3]) it was 6.79.

With `C=CC(=O)N1CC2(CCN(c3nc4cc(-c5scnc5C)cnc4c(-c4cccc(C)c4C)c3C#N)C2)C1` (single isomer, unassigned) [Example 19-14, (P)-4-(2,3-dimethylphenyl)-7-(4-methyl-1,3-thiazol-5-yl)-2-(2-(2-propenoyl)-2,6-diazaspiro[3.4]octan-6-yl)-1,5-naphthyridine-3-carbonitrile], the pIC50 in assay [1] (72 h) is 6.44; in assay [2] (72 h) it was below 5.30; against KRAS G12C, 7.42.

`C=CC(=O)N1CC2(CCN(c3nc4c(c(-c5cc(O)cc6ccccc56)c3C#N)C3CCC4C3)C2)C1` [Example 2-38, (1R,8S)-6-(3-hydroxy-1-naphthalenyl)-4-(2-(2-propenoyl)-2,6-diazaspiro[3.4]octan-6-yl)-3-azatricyclo[6.2.1.0^2,7]undeca-2,4,6-triene-5-carbonitrile|(1S, 8R)-6-(3-hydroxy-1-naphthalenyl)-4-(2-(2-propenoyl)-2,6-diazaspiro[3.4]octan-6-yl)-3-azatricyclo[6.2.1.0^2,7]undeca-2,4,6-triene-5-carbonitrile]: the pIC50 in assay [1] (Homo sapiens, MIA PaCa-2, 72 h) was 6.80; in assay [2] (Homo sapiens, A549, 72 h), 5.47; at KRAS G12C (setting [3]), 7.17.

As for `C=CC(=O)N1CC2(CCN(c3nc4c(c(-c5cc(O)ccc5C)c3C#N)C[C@H]3C[C@@H]4C3)C2)C1` (single isomer, unassigned) [Example 13-126], the negative-log IC50 (pIC50) in assay [1] (Homo sapiens, MIA PaCa-2, 72 h) was below 5.30; in assay [2] (Homo sapiens, A549, 72 h) it was below 5.30; against KRAS G12C (setting [3]), 7.54.

For the molecule `C=CC(=O)N1CC2(CCN(c3nc4c(c(-c5c(Cl)ccc6[nH]ncc56)c3C#N)CCC(C)(C)C4)C2)C1` [Example 13-144, 4-(5-chloro-1H-indazol-4-yl)-7,7-dimethyl-2-(2-(2-propenoyl)-2,6-diazaspiro[3.4]octan-6-yl)-5,6,7,8-tetrahydro-3-quinolinecarbonitrile], the pIC50 in assay [1] (Homo sapiens, MIA PaCa-2, 72 h) is 6.76; in assay [2] (Homo sapiens, A549, 72 h), 5.42; against KRAS G12C (setting [3]) it was 7.39.

In the case of `C=CC(=O)N1CC2(C1)CN(c1nc3c(c(-c4c(C)ccc5[nH]ncc45)c1C#N)CCC(C)(C)C3)CC2(F)F` [Example 2-105, 2-(8,8-difluoro-2-(2-propenoyl)-2,6-diazaspiro[3.4]octan-6-yl)-7,7-dimethyl-4-(5-methyl-1H-indazol-4-yl)-5,6,7,8-tetrahydro-3-quinolinecarbonitrile], the pIC50 in assay [1] (Homo sapiens, MIA PaCa-2, 72 h) is 6.37; in assay [2] (Homo sapiens, A549, 72 h), 5.47; against KRAS G12C (setting [3]), 7.04.

As for `C=CC(=O)N1CC2(CCN(c3nc4cc(-c5c(C)nn(C)c5C)ccc4c(-c4ccccc4Cl)c3C#N)C2)C1` [Example 14-46, 4-(2-chlorophenyl)-2-(2-(2-propenoyl)-2,6-diazaspiro[3.4]octan-6-yl)-7-(1,3,5-trimethyl-1H-pyrazol-4-yl)-3-quinolinecarbonitrile], the pIC50 in assay [1] (Homo sapiens, MIA PaCa-2, 72 h) is 6.34; in assay [2] (Homo sapiens, A549, 72 h), 5.62; against KRAS G12C, 6.95.

With `C=CC(=O)N1CC2(CCN(c3nc4c(c(-c5c(C)ccc6cnn(C)c56)c3C#N)CC[C@H]3C[C@@H]43)C2)C1` (single isomer, unassigned) [Example 13-137, (6a,7a)-4-(1,6-dimethyl-1H-indazol-7-yl)-2-(2-(2-propenoyl)-2,6-diazaspiro[3.4]octan-6-yl)-6,6a,7,7a-tetrahydro-5H-cyclopropa[h]quinoline-3-carbonitrile], the negative-log IC50 (pIC50) in assay [1] (Homo sapiens, MIA PaCa-2, 72 h) is 6.33; in assay [2] (Homo sapiens, A549, 72 h) it was below 5.30; against KRAS G12C (setting [3]), 7.14.

Take `C=CC(=O)N1CC2(CCN(c3nc4c(c(-c5cccc6cc(O)ccc56)c3C)CCC(C)(C)C4)C2)C1` [Example 2-13, 1-(6-(4-(6-hydroxy-1-naphthalenyl)-3,7,7-trimethyl-5,6,7,8-tetrahydro-2-quinolinyl)-2,6-diazaspiro[3.4]octan-2-yl)-2-propen-1-one]: the negative logarithm of the IC50 (pIC50) was 6.39 in assay [1] (Homo sapiens, MIA PaCa-2, 72 h); below 5.30 in assay [2] (Homo sapiens, A549, 72 h); 6.82 at KRAS G12C (setting [3]).

For orientation: pIC50 means −log10 of the IC50, conventionally taken in molar units. Higher therefore signals a small IC50.
